Patent publication US20250214973A1, “1,4,5-TRISUBSTITUTED-1,2,3-TRIAZOLES AND USES THEREOF” (UNIVERSITY OF PUERTO RICO, priority 2022, published 2025)

Key:
[1] = system: A549 lung adenocarcinoma cells; test: EGF-induced membrane ruffles, F-actin staining; assay type: cell-based; conditions: 24 h
Procedure: Cells were stimulated with EGF (200 ng/ml) for 5 min, and fixed and stained with Rhodamine Phalloidin for F-actin.
Cells were grown on glass coverslips and treated with vehicle or 4c for 24h. Lung cancer cells that were stimulated with epidermal growth factor (EGF) were serum starved prior to stimulation with 200 ng/ml EGF for 5 min. Following fixation in 4% formaldehyde, cells were stained for F-actin with Rhodamine phalloidin and visualized by fluorescence microscopy. 5 random fields were scored for the number of ruffles.

Panc-1 = test: Wound healing assay; assay type: cell-based; conditions: Homo sapiens, 24 hr, read-out: inhibition of Panc-1 cell migration
Procedure: Mircrographs were digitally acquired at 0, 12, and 24 hours and the area of the wound quantified relative to the distance at time 0. n=3.
Panc-1 cells plated at equal density were subjected to a scratch in the center and treated with 4c at 0, 150 nM, 250 nM, or 500 nM. Mircrographs were digitally acquired at 0, 12, and 24 hours and the area of the wound quantified relative to the distance at time 0. n=3.

MDA-MB-231 = test: Initial screening, inhibition of migration (wound gap); assay type: cell-based; conditions: Homo sapiens, at 10 μM, read-out: Inh. of migration
Procedure: In addition, the inhibition of migration of MDA-MB-231 was determined via the following procedure:
Prior to assays, cells were grown until 80-90% confluence was observed. We used a 75 cm^2 flask for 2.6×10^5 cells/mL in 10 mL and for a 25 cm^2 flask 1.44×10^5 cells/mL in 5 mL. The cells were washed with PBS to remove all traces of FBS. We added 2 mL for a 25 cm^2 flasks or 4 mL for a 75 cm^2 flasks trypsin, and incubated 5-10 min at 37° C. At the end of the incubation time, cells were re-suspended and counted with hemocytometer using 1:2 dilutions with Trypan blue. Subsequently, cell viability was calculated. In a 12 well tissue culture plate, we used the plastic pattern to draw a fine space with a fine marker on the bottom of the plate. Cells were seeded at 1.5-2.2×10^5 cells/mL in 1 mL and incubated for 24 h. Cells were then rinsed with PBS and incubated in starving media (0.5% FBS) overnight. All controls and drugs were tested in triplicate. The negative control for each drug was prepared according to the drug's DMSO concentration. […] The wound was made using a sterile pipette tip of 200 μL. Cells were then rinsed very gently with media without FBS and media with negative controls was added. After a 24 h incubation, the gap distance was evaluated using the software Lumera Infinity Analyze 6.4.0. Pictures were taken at 0, 8, 12 and 24 h using a 10× objective in an Inverted Laboratory Microscope Leica DM IL LED, and an Infinity1-3 3.1 Megapixel USB 2.0 camera CMOS. The percentage of migration was calculated using the following formula: […]

Vav2 binding to Rac1 = target: T1, Vav2 binding to Rac1 (Homo sapiens, UniProt P63000, G15A); test: Rac1 GEF assay, Rac1(G15A) pulldown; conditions: 250 nM, MDA-MB-231 lysates
T1 construct: purchased Cell Biolabs, San Diego; CA; host or cells: Vav2 from MDA-MB-231 cell lysate
Procedure: GST-Rac1 (G15A) beads were pre-incubated with vehicle (0.1% DMSO), or 8 μM EHop-016, or 250 nM Compound 4c for 1 hour followed by incubation with MDA-MB-231 cell lysates (equal total protein). Representative Western blot for Rac1(G15A) or pulldowns immunostained for Vav2 is shown (n=3).
MDA-MB-231 cells in culture medium were lysed in 1% Triton X-100, 20 mM HEPES, pH 7.4, 150 mM NaCl, 5 mm MgCl2, and protease inhibitors and processed. Equal amounts of protein from cleared lysates were incubated for 1 h at 4° C. with glutathione-agarose beads conjugated to GST-Rac1(G15A) nucleotide-free mutant (Cell Biolabs, San Diego. CA) that were preincubated (for 1 h) with vehicle or 8 μm EHop-016 or 0.25 μM Compound 4c. The beads were washed, and the lysates and pull-downs were immunoblotted for Tiam-1, Trio, Ect2, p-REX, or Vav2.

[2] = system: human mammary epithelial cells (HMEC); test: Cell viability assay (MTT); assay type: cell-based; conditions: 0-1000 nM
Procedure: Cells were treated with 4c at concentrations ranging from 0-1000 nM. Cell viability was assessed by a MTT assay. n=2.
Equal number of cells were seeded in a 24 well plate and incubated with vehicle or compounds according to this disclosure at concentrations between 1 and 0.001 nM for 72 and 120 hrs. Using CellTiter 96 Non-Radioactive Cell Proliferation Assay (Promega, Corp.) according to manufactures' instructions, formazan was used as an indicator of viable cells at an absorbance 570 nm in a Tecan Microplate Reader M100. Data was calculated as fold change from vehicle and fitted using the 4′parameter logic nonlinear regression model in GraphPad Prism software. (n=3 biologic replicates: with 3 technical replicates each).

Q: For CCn1c2ccccc2c2cc(-n3nnc(C(O)c4cccc(OC)c4)c3-c3ccccc3)ccc21 (centres unmarked) [Compound 4c, (1-(9-ethyl-9H-carbazol-3-yl)-5-phenyl-1H-1,2,3-triazol-4-yl) (3-methoxyphenyl) methanol], which “reduction of membrane ruffles in response to EGF” value (“reduction of membrane ruffles” below) ([1]; 250 nM) is on record?
A: 20%

Q: What about the “reduction of membrane ruffles” value ([1]; 500 nM) of the same compound?
A: ~38%

Q: What about the “reduction of membrane ruffles” value ([1]; 1000 nM) of the same compound?
A: 58%

Q: What about the inhibition at […] (Panc-1; 250 nM) of the same compound?
A: ~40%

Q: And the inhibition at 0.5 µM (Panc-1; 500 nM)?
A: 75%

Q: What about the inhibition at 10 µM (MDA-MB-231) of the same compound?
A: 50.8 ± 11.4%

Q: And the inhibition at […] (Vav2 binding to Rac1)?
A: ~80%

Q: And the “effect on non-transformed HMEC viability” value [2]?
A: did not affect
